The test system of test [1] is ATP-induced IL-1β secretion in PBMCs. The test is described as follows: IL-1β ELISA in patient-derived PBMCs/monocytes (STEMI and controls). In kind it is cell-based, human. To be noted: pre-incubated with 1 μmol/L compound. The text has this: The role of inflammation in cardiovascular disease processes was explored. Patients that were admitted to the Royal North Shore Hospital, Sydney, Australia for clinically indicated cardiac catheterisation were consented for the study. These patients were subdivided according to their clinical presentation: • 1. Patients presenting with STEMI, characterised by recent-onset chest pain, ECG changes and/or raised cardiac enzymes. • 2. Age and sex-matched control patients with no evidence of coronary stenosis on angiography.
Patients were excluded from the study if they were taking anti-inflammatory medications, or if they had clinical or biochemical evidence of active infection or inflammation.
20 mL of blood was collected from the arterial sheath into an EDTA-coated tube. Samples were immediately diluted 1:1 in phosphate buffered saline (PBS) and layered on top of Ficoll-Paque for gradient separation. Samples were centrifuged at […] for 15 minutes. […]
(§1) Changes in secreted and intracellular levels of IL-1β were measured by ELISA (RnD systems). Samples were diluted 1 in 2 in commercial diluent, assayed according to manufacturer's instructions and detected at 450/570 nm.
Peripheral blood mononuclear cells (PBMCs) were collected from 19 STEMI patients at the time of infarct, and 3 healthy controls. […] IL-1β levels were measured by ELISA.
A general note: An ELISA detects its analyte on a solid surface through an enzyme-linked reagent.

The subject of test [2] is secreted IL-1β in THP-1 monocytic cells. The test is described as follows: IL-1β dose-response testing in THP-1 monocytic cell line. To be noted: Homo sapiens; THP-1 treated with interferon-γ and lipopolysaccharide 3 hours, compound 1-1000 nM, ATP stimulation; read-out: LogEC50, secreted IL-1β (converted). Type of test: cell-based. The method, then:
Supernatant was collected to measure the level of secreted IL-1β.
Cells were plated in 48-well Corning cell-bind plates at 2×10^5 cells/well, and treated with recombinant human interferon-γ (10 ng/mL) and lipopolysaccharide (25 ng/mL) for 3 hours. […] Supernatant was collected to measure the level of secreted IL-1ß.
as §1

Molecules are shown by their SMILES.

For the compound `COc1ccc(Cl)c(C(=O)NCC23CC4(F)CC(F)(CC(F)(C4)C2)C3)c1` [Compound 1, 2-Chloro-N-((3,5,7-trifluoroadamantan-1-yl)methyl)-5-methoxybenzamide], the “secreted IL-1β after ATP stimulation, STEMI PBMCs” value in test [1] (STEMI patients' PBMCs) worked out at 13.9±2.4. Moreover, the “secreted IL-1β after ATP stimulation, control PBMCs” value in test [1] (healthy controls' PBMCs) is 7.5±2.8. The EC50 in test [2] is 8.53 nM.
